Measurements published in patent US9167821B2 (priority 2009, dated 2015).
Structures can show the parent of a compound that is named as a salt.

Experiments:
[1] = for logp [a]: pH 2.3; for logp [c]: pH 7.8; for logp [b] / log P (HCOOH): pH 2.7
Description: (§1) The determination is effected in the acidic range at pH 2.3 using 0.1% aqueous phosphoric acid and acetonitrile as eluents; linear gradient from 10% acetonitrile to 95% acetonitrile. • ^[b] The LC-MS determination in the acidic range is effected at pH 2.7 using 0.1% aqueous formic acid and acetonitrile (contains 0.1% formic acid) as eluents; linear gradient from 10% acetonitrile to 95% acetonitrile. • ^[c] The LC-MS determination in the neutral range is effected at pH 7.8 using 0.001 molar aqueous ammonium hydrogencarbonate solution and acetonitrile as eluents; linear gradient from 10% acetonitrile to 95% acetonitrile.
(§2) The calibration is effected with unbranched alkan-2-ones (having 3 to 16 carbon atoms) with known log P values (determination of the log P values using the retention times by linear interpolation between two successive alkanones).

Plasmopara viticola = test: Plasmopara test (grapevine)/protective; type: in vivo; details: grapevine plants, protective spray, 10 ppm active ingredient, evaluation 6 days after inoculation, 0% = control, 100% = no infection
Description: Plasmopara Test (Grapevine)/Protective
To prepare an appropriate active ingredient preparation, 1 part by weight of active ingredient is mixed with the stated amounts of solvent and emulsifier, and the concentrate is diluted with water to the desired concentration.
To test for protective efficacy, young plants are sprayed with the active ingredient preparation at the stated application rate. After the spray coating has dried on, the plants are inoculated with an aqueous spore suspension of Plasmopara viticola and then remain in an incubation cabinet at about 20° C. and 100% relative atmospheric humidity for 1 day. The plants are then placed in a greenhouse at approx. 21° C. and approx. 90% air humidity for 4 days. The plants are then moistened and placed in an incubation cabinet for 1 day.
Evaluation follows 6 days after the inoculation.

Phytophthora infestans = test: whole plant or invertebrate; type: in vivo

Description for physchem: as §1, §2

## CC#CCOc1ccc(C2CC(c3csc(C4CCN(C(=O)Cn5nc(C(F)F)cc5C(F)F)CC4)n3)=NO2)cc1 (racemic) [I-48]
[1]
  logp [a]: 3.43^[a]
  logp [c]: 3.42^[c];

## CCS(=O)(=O)Cc1ccccc1C1CC(c2csc(C3CCN(C(=O)Cn4nc(C(F)F)cc4C(F)F)CC3)n2)=NO1 (racemic) [I-53]
[1]
  logp [b]: 2.76^[b]

## O=C(CC(F)(F)F)Oc1ccccc1C1CC(c2csc(C3CCN(C(=O)Cn4nc(C(F)F)cc4C(F)F)CC3)n2)=NO1 (racemic) [I-36]
[1]
  logp [a]: 9.43^[a];
  logp [c]: 3.52^[c]

## O=C(Cn1nc(C(F)F)cc1C(F)F)N1CCC(c2nc(C3=NOC(c4ccccc4COCC(F)(F)F)C3)cs2)CC1 (racemic) [I-52]
[1]
  logp [b]: 3.4^[b]
  logp [c]: 3.6^[c];

## C=CCOc1ccccc1C1CC(c2csc(C3CCN(C(=O)Cn4nc(C(F)F)cc4C(F)F)CC3)n2)=NO1 (centres unmarked) [I-14, 1-[4-(4-{5-[2-(Allyloxy)phenyl]-4,5-dihydro-1,2-oxazol-3-yl}-1,3-thiazol-2-yl)piperidin-1-yl]-2-[3,5-bis(difluoromethyl)-1H-pyrazol-1-yl]ethanone]
Plasmopara viticola; Plasmopara viticola, 144 h, read-out: efficacy
  pest or weed control at 10 ppm: 100%
physchem; pH 2.7, logp [b]
  chromatographic logP: 3.63
physchem; pH 7.8, logp [c]
  chromatographic logP: 3.65
Phytophthora infestans; Phytophthora infestans, in Solanum lycopersicum, 72 h, read-out: efficacy
  pest or weed control at 10 ppm: 98%

## O=C(Cn1nc(C(F)F)cc1C(F)F)N1CCC(F)(c2nc(C3=NOC(c4ccccc4F)C3)cs2)CC1 (racemic) [I-4]
Plasmopara viticola
  efficacy: 100%
[1]
  logp [b]: 3.49^[b]

## O=C(Cn1nc(C(F)F)cc1C(F)F)N1CCC(c2nc(C=NO)cs2)CC1 [2-(1-{[3,5-Bis(difluoromethyl)-1H-pyrazol-1-yl]acetyl}piperidin-4-yl)-1,3-thiazole-4-carbaldehyde oxime]
physchem; pH 2.7, log P (HCOOH)
  chromatographic logP: 1.93
[1]
  log P (HCOOH): 1.98

## CC#CCOc1cccc(F)c1C1CC(c2csc(C3CCN(C(=O)Cn4nc(C(F)F)cc4C(F)F)CC3)n2)=NO1 (racemic) [I-29]
[1]
  logp [a]: 3.46^[a];
  logp [c]: 3.42^[c]

## tert-Butyl 4-[4-(5-{2-[(cyclopropylmethoxy)carbonyl]phenyl}-4,5-dihydro-1,2-oxazol-3-yl)-1,3-thiazol-2-yl]piperidine-1-carboxylate [X-a-10]
[1]
  log P (HCOOH): 4.99

## C#CCOc1cccc(F)c1C1CC(c2csc(C3CCN(C(=O)Cn4nc(C(F)F)cc4C(F)F)CC3)n2)=NO1 (racemic) [I-30]
[1]
  logp [a]: 3.18^[a];
  logp [c]: 3.15^[c]

## CC(C)(C)OC(=O)N1CCC(F)(c2nc(C=NO)cs2)CC1 (mixture of isomers) [tert-Butyl 4-fluoro-4-{4-[(E/Z)-(hydroxyimino)methyl]-1,3-thiazol-2-yl}piperidine-1-carboxylate]
[1]
  log P (HCOOH): 2.53

## O=C(Oc1ccccc1C1CC(c2csc(C3CCN(C(=O)Cn4nc(C(F)F)cc4C(F)F)CC3)n2)=NO1)C1CC1 (racemic) [I-33]
[1]
  logp [a]: 3.34^[a]
  logp [c]: 3.28^[c];

## CCC#CCOc1ccc(C2CC(c3csc(C4CCN(C(=O)Cn5nc(C(F)F)cc5C(F)F)CC4)n3)=NO2)cc1 (racemic) [I-47]
[1]
  logp [a]: 3.76^[a]
  logp [c]: 3.74^[c];

## CC(C)(C)OC(=O)N1CCC(c2nc(C3=NOC(c4ccccc4[N+](=O)[O-])C3)cs2)CC1 (centres unmarked) [X-a-6, tert-Butyl 4-{4-[5-(2-nitrophenyl)-4,5-dihydro-1,2-oxazol-3-yl]-1,3-thiazol-2-yl}piperidine-1-carboxylate]
physchem; pH 2.7, log P (pH2.7)
  chromatographic logP: 4.01

## O=C(NC1CC1)c1ccccc1C1CC(c2csc(C3CCN(C(=O)Cn4nc(C(F)F)cc4C(F)F)CC3)n2)=NO1 (centres unmarked) [I-27, 2-{3-[2-(1-{[3,5-Bis(difluoromethyl)-1H-pyrazol-1-yl]acetyl}piperidin-4-yl)-1,3-thiazol-4-yl]-4,5-dihydro-1,2-oxazol-5-yl}-N-cyclopropylbenzamide]
physchem; pH 2.7, logp [b]
  chromatographic logP: 2.64

## CC#CCOc1ccccc1C1CC(c2csc(C3CCN(C(=O)Cn4nc(C(F)F)cc4C(F)F)CC3)n2)=NO1 (racemic) [I-35]
[1]
  logp [a]: 3.65^[a]
  logp [c]: 3.55^[c];
Phytophthora infestans; tomato plants, protective spray, 10 ppm active ingredient, evaluation 3 days after inoculation, 0% = control, 100% = no infection
  efficacy: 88%

## COC(=O)c1ccccc1C1CC(c2csc(C3CCN(C(=O)OC(C)(C)C)CC3)n2)=NO1 (centres unmarked) [X-a-8, tert-butyl 4-(4-{5-[2-(methoxycarbonyl)phenyl]-4,5-dihydro-1,2-oxazol-3-yl}-1,3-thiazol-2-yl)piperidine-1-carboxylate]
physchem; pH 2.7, log P (HCOOH)
  chromatographic logP: 4.14

## CCC#CCOc1cccc(C2CC(c3csc(C4CCN(C(=O)Cn5nc(C(F)F)cc5C(F)F)CC4)n3)=NO2)c1 (racemic) [I-34]
[1]
  logp [a]: 3.83^[a]
  logp [c]: 3.74^[c];

## CCSCc1ccccc1C1CC(c2csc(C3CCN(C(=O)Cn4nc(C(F)F)cc4C(F)F)CC3)n2)=NO1 (centres unmarked) [I-12, 2-[3,5-Bis(difluoromethyl)-1H-pyrazol-1-yl]-1-{4-[4-(5-{2-[(ethylsulphanyl)methyl]phenyl}-4,5-dihydro-1,2-oxazol-3-yl)-1,3-thiazol-2-yl]piperidin-1-yl}ethanone]
physchem; pH 2.7, logp [b]
  chromatographic logP: 3.9

## N=C(N)SCc1ccccc1C1CC(c2csc(C3CCN(C(=O)Cn4nc(C(F)F)cc4C(F)F)CC3)n2)=NO1 (centres unmarked) [2-{3-[2-(1-{[3,5-Bis(difluoromethyl)-1H-pyrazol-1-yl]acetyl}piperidin-4-yl)-1,3-thiazol-4-yl]-4,5-dihydro-1,2-oxazol-5-yl}benzyl imidothiocarbamate]
[1]
  log P (HCOOH): 1.68

## O=C(OCC1CC1)c1ccccc1C1CC(c2csc(C3CCN(C(=O)Cn4nc(C(F)F)cc4C(F)F)CC3)n2)=NO1 (centres unmarked) [I-13, Cyclopropylmethyl 2-{3-[2-(1-{[3,5-bis(difluoromethyl)-1H-pyrazol-1-yl]acetyl}piperidin-4-yl)-1,3-thiazol-4-yl]-4,5-dihydro-1,2-oxazol-5-yl}benzoate]
physchem; pH 2.7, logp [b]
  chromatographic logP: 3.99
physchem; pH 7.8, logp [c]
  chromatographic logP: 3.92

## O=C(Oc1ccccc1C1CC(c2csc(C3CCN(C(=O)Cn4nc(C(F)F)cc4C(F)F)CC3)n2)=NO1)C1CCCCC1 (centres unmarked) [I-32, 2-{3-[2-(1-{[3,5-bis(difluoromethyl)-1H-pyrazol-1-yl]acetyl}piperidin-4-yl)-1,3-thiazol-4-yl]-4,5-dihydro-1,2-oxazol-5-yl}phenyl cyclohexanecarboxylate]
physchem; pH 2.3
  chromatographic logP: 4.27
physchem; pH 7.8, logp [c]
  chromatographic logP: 4.19

## O=Cc1csc(C2CCN(C(=O)Cn3nc(C(F)F)cc3C(F)F)CC2)n1 [VI-2, 2-(1-{[3,5-Bis(difluoromethyl)-1H-pyrazol-1-yl]acetyl}piperidin-4-yl)-1,3-thiazole-4-carbaldehyde]
physchem; pH 2.7, log P (HCOOH)
  chromatographic logP: 1.93

## CC(=O)c1ccccc1C1CC(c2csc(C3CCNCC3)n2)=NO1 (centres unmarked) [XII-2, 1-(2-{3-[2-(Piperidin-4-yl)-1,3-thiazol-4-yl]-4,5-dihydro-1,2-oxazol-5-yl}phenyl)ethanone hydrochloride]
physchem; pH 2.7, log P (HCOOH)
  chromatographic logP: 0.96

## CC(C)(C)OC(=O)N1CCC(F)(c2nc(C=O)cs2)CC1 [VI-1, tert-Butyl 4-fluoro-4-(4-formyl-1,3-thiazol-2-yl)piperidine-1-carboxylate]
physchem; pH 2.7, log P (HCOOH)
  chromatographic logP: 2.8

## O=C(Cn1nc(C(F)F)cc1C(F)F)N1CCC(c2nc(C3=NOC(c4ccccc4CCl)C3)cs2)CC1 (centres unmarked) [I-44, 2-[3,5-Bis(difluoromethyl)-1H-pyrazol-1-yl]-1-[4-(4-{5-[2-(chloromethyl)phenyl]-4,5-dihydro-1,2-oxazol-3-yl}-1,3-thiazol-2-yl)piperidin-1-yl]ethanone]
physchem; pH 2.7, logp [b]
  chromatographic logP: 3.36

## CCCCOCc1ccccc1C1CC(c2csc(C3CCN(C(=O)Cn4nc(C(F)F)cc4C(F)F)CC3)n2)=NO1 (racemic) [I-16]
[1]
  logp [b]: 4.24^[b]
